± gives the expanded uncertainty stated by the source.
Conditions: 101.33 kPa, Liquid, Vibrating tube method

Row | SMILES | mass density (293.15 K) | mass density (313.15 K)
1 | CCCCOCCO [2-butoxyethan-1-ol] | 900.64 ± 0.15 kg/m3 | 883.8 ± 0.15 kg/m3
2 | CCCCCCCC [octane] | 702.64 ± 0.32 kg/m3 | 686.39 ± 0.32 kg/m3
